Measurements as given in PubChem BioAssay AID330 (DTP/NCI, 2004).
Several values for one entry are separate records, joined by “and”; a condition that tells them apart may be missing. Equal entries are not always repeated. Inconclusive results and toxic doses are left out.

System: P388 leukemia ip, CD2F1 mice, survival T/C
Assay: NCI In Vivo Anticancer Drug Screen. Data for tumor model P388 Leukemia (intraperitoneal) in CD2F1 (CDF1) mice
Conditions: endpoint: median survival time, higher = longer survival
Outline: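 Mice carrying the transplanted tumor received test compound or vehicle. Survival was recorded in each group, and the value is the treated-group measurement divided by that of the vehicle-treated control group.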

[1] = dose: 60.0 mg/kg/injection, schedule: Q01DX005 (ip), vehicle: saline with Tween-80
[2] = dose: 120.0 mg/kg/injection, schedule: Q01DX005 (ip), vehicle: saline with Tween-80
[3] = dose: 240.0 mg/kg/injection, schedule: Q01DX005 (ip), vehicle: saline with Tween-80
[4] = dose: 25.0 mg/kg/injection, schedule: Q01DX009 (ip), vehicle: saline
[5] = dose: 50.0 mg/kg/injection, schedule: Q01DX009 (ip), vehicle: saline
[6] = dose: 100.0 mg/kg/injection, schedule: Q01DX009 (ip), vehicle: saline
[7] = dose: 200.0 mg/kg/injection, schedule: Q01DX009 (ip), vehicle: saline
[8] = dose: 12.5 mg/kg/injection, schedule: Q01DX009 (ip), vehicle: saline with Tween-80
[9] = dose: 25.0 mg/kg/injection, schedule: Q01DX009 (ip), vehicle: saline with Tween-80
[10] = dose: 50.0 mg/kg/injection, schedule: Q01DX009 (ip), vehicle: saline with Tween-80
[11] = dose: 50.0 mg/kg/injection, schedule: Q01DX005 (ip), vehicle: Klucel (hydroxypropylcellulose) (HPC)
[12] = dose: 100.0 mg/kg/injection, schedule: Q01DX005 (ip), vehicle: Klucel (hydroxypropylcellulose) (HPC)
[13] = dose: 200.0 mg/kg/injection, schedule: Q01DX005 (ip), vehicle: Klucel (hydroxypropylcellulose) (HPC)

For `O=C1CN2CCN3CC(=O)NC(=O)[C@H]3[C@@H]2C(=O)N1`, the T/C [1] was 96 % of control, the T/C [2] was 96 % of control and the T/C [3] was 98 % of control.

With `O=c1n(CC2CO2)c(=O)n(CC2CO2)c(=O)n1CC1CO1` (stereo not drawn) the T/C (dose: 6.25 mg/kg/injection, schedule: Q01DX009 (ip), vehicle: suspension in saline) was 203 % of control and 172 % of control, the T/C (dose: 12.5 mg/kg/injection, schedule: Q01DX009 (ip), vehicle: saline) was 165 % of control and 186 % of control and the T/C (dose: 12.5 mg/kg/injection, schedule: Q01DX009 (ip), vehicle: suspension in saline) was 197 % of control and 216 % of control. The T/C (dose: 15.0 mg/kg/injection, schedule: Q01DX005 (ip), vehicle: saline with Tween-80) was 200 % of control, the T/C (dose: 15.0 mg/kg/injection, schedule: Q01DX005 (ip), vehicle: saline) was 161 % of control and the T/C (dose: 20.0 mg/kg/injection, schedule: Q01DX009 (ip), vehicle: saline) was 313 % of control. The T/C (dose: 20.0 mg/kg/injection, schedule: Q01DX009 (sc), vehicle: saline) was 172 % of control and 220 % of control, the T/C [4] was 167 % of control and 205 % of control and the T/C (dose: 25.0 mg/kg/injection, schedule: Q01DX009 (ip), vehicle: suspension in saline) was 226 % of control and 281 % of control. The T/C (dose: 25.0 mg/kg/injection, schedule: Q01DX009 (sc), vehicle: saline) was 157 % of control and 265 % of control, the T/C (dose: 30.0 mg/kg/injection, schedule: Q01DX005 (ip), vehicle: saline) was 192 % of control and the T/C (dose: 30.0 mg/kg/injection, schedule: Q01DX009 (ip), vehicle: saline) was 272 % of control and 290 % of control and 316 % of control. The T/C (dose: 30.0 mg/kg/injection, schedule: Q01DX009 (sc), vehicle: saline) was 161 % of control and 247 % of control, the T/C (dose: 40.0 mg/kg/injection, schedule: Q01DX009 (sc), vehicle: saline) was 277 % of control and the T/C (dose: 40.0 mg/kg/injection, schedule: Q04DX003 (ip), vehicle: saline) was 184 % of control and 188 % of control and 218 % of control. The T/C [5] was 200 % of control [middle of 5 runs], the T/C (dose: 50.0 mg/kg/injection, schedule: Q01DX009 (ip), vehicle: suspension in saline) was 100 % of control and the T/C (dose: 50.0 mg/kg/injection, schedule: Q04DX003 (ip), vehicle: saline) was 206 % of control and 217 % of control and 290 % of control. For the same compound, the T/C (dose: 60.0 mg/kg/injection, schedule: Q01DX001 (ip), vehicle: other) was 262 % of control and 271 % of control, the T/C (dose: 60.0 mg/kg/injection, schedule: Q01DX001 (ip), vehicle: saline) was 271 % of control and the T/C (dose: 60.0 mg/kg/injection, schedule: Q01DX001 (ip), vehicle: water) was 260 % of control. For the same compound, the T/C (dose: 60.0 mg/kg/injection, schedule: Q04DX003 (ip), vehicle: saline) was 233 % of control and 245 % of control and 300 % of control, the T/C (dose: 70.0 mg/kg/injection, schedule: Q01DX001 (ip), vehicle: other) was 231 % of control and 281 % of control and the T/C (dose: 70.0 mg/kg/injection, schedule: Q01DX001 (ip), vehicle: saline) was 274 % of control. For the same compound, the T/C (dose: 70.0 mg/kg/injection, schedule: Q01DX001 (ip), vehicle: water) was 184 % of control, the T/C (dose: 80.0 mg/kg/injection, schedule: Q01DX001 (ip), vehicle: other) was 291 % of control and 349 % of control and the T/C (dose: 80.0 mg/kg/injection, schedule: Q01DX001 (ip), vehicle: saline) was 291 % of control. The T/C (dose: 80.0 mg/kg/injection, schedule: Q01DX001 (ip), vehicle: water) was 223 % of control, the T/C (dose: 90.0 mg/kg/injection, schedule: Q01DX001 (ip), vehicle: saline) was 420 % of control and the T/C (dose: 100.0 mg/kg/injection, schedule: Q01DX001 (ip), vehicle: saline) was 210 % of control. The T/C [6] was 285 % of control and 156 % of control and 228 % of control and the T/C [7] was 107 % of control.

In the case of `NC(CC(=O)O)C(F)(F)F` (stereo not drawn), the T/C [1] is reported as 99 % of control, the T/C [2] is reported as 100 % of control and the T/C [3] is reported as 102 % of control.

For `CN(C)C1CS(=O)(=O)C1c1ccccc1` (stereo not drawn), the T/C [8] was 100 % of control and 110 % of control, the T/C [9] was 110 % of control and 95 % of control and the T/C [10] was 112 % of control and 95 % of control. The T/C (dose: 100.0 mg/kg/injection, schedule: Q01DX009 (ip), vehicle: saline with Tween-80) was 102 % of control and 103 % of control and 97 % of control and the T/C (dose: 200.0 mg/kg/injection, schedule: Q01DX009 (ip), vehicle: saline with Tween-80) was 102 % of control.

For `CCCC1OCC2OC(Nc3ccccc3)C(O)C(O)C2O1` (stereo not drawn), the T/C (dose: 50.0 mg/kg/injection, schedule: Q01DX005 (ip), vehicle: saline with Tween-80) was 103 % of control, the T/C (dose: 100.0 mg/kg/injection, schedule: Q01DX005 (ip), vehicle: saline with Tween-80) was 98 % of control and the T/C (dose: 200.0 mg/kg/injection, schedule: Q01DX005 (ip), vehicle: saline with Tween-80) was 103 % of control.

With `O=[N+]([O-])c1ccc(S(=O)(=O)OI(O)c2ccccc2)cc1` the T/C (dose: 25.0 mg/kg/injection, schedule: Q01DX009 (ip), vehicle: water) was 104 % of control and 105 % of control, the T/C (dose: 50.0 mg/kg/injection, schedule: Q01DX009 (ip), vehicle: water) was 98 % of control and 120 % of control and 96 % of control and the T/C (dose: 100.0 mg/kg/injection, schedule: Q01DX009 (ip), vehicle: water) was 100 % of control and 101 % of control and 91 % of control.

With `NCCN.NCCN.[Cl-].[O]=[Re]=[O]` the T/C (dose: 60.0 mg/kg/injection, schedule: Q01DX005 (ip), vehicle: saline) was 100 % of control, the T/C (dose: 120.0 mg/kg/injection, schedule: Q01DX005 (ip), vehicle: saline) was 102 % of control and the T/C (dose: 240.0 mg/kg/injection, schedule: Q01DX005 (ip), vehicle: saline) was 100 % of control.

For `Nc1nnc(Cc2ccc(Cl)cc2)o1`, the T/C [1] was 95 % of control, the T/C [2] was 105 % of control and the T/C [3] was 105 % of control.

In the case of `COc1ccc2c(c1)c(-c1cc3ccccc3oc1=O)cn2C(=O)c1ccc(Cl)cc1`, the T/C [1] is reported as 105 % of control, the T/C [2] is reported as 102 % of control and the T/C [3] is reported as 106 % of control.

For `CC(C)(C)c1cc(/C=N\O)cc(C(C)(C)C)c1O`, the T/C [5] was 98 % of control, the T/C [6] was 107 % of control and the T/C [7] was 107 % of control.

In the case of `CN1CCC/C1=C1/C(=O)Nc2ccc(Cl)cc21`, the T/C [11] is reported as 108 % of control, the T/C [12] is reported as 107 % of control and the T/C [13] is reported as 102 % of control.

`c1ccc(Nc2nn[nH]n2)cc1` was tested, and the T/C [11] was 109 % of control, the T/C [12] was 107 % of control and the T/C [13] was 109 % of control.

`CC(C)(C)C1CO1` (stereo not drawn) was tested, and the T/C (dose: 50.0 mg/kg/injection, schedule: Q01DX005 (ip), vehicle: saline) was 103 % of control, the T/C (dose: 100.0 mg/kg/injection, schedule: Q01DX005 (ip), vehicle: saline) was 108 % of control and the T/C (dose: 200.0 mg/kg/injection, schedule: Q01DX005 (ip), vehicle: saline) was 110 % of control.

For `CCOC(=O)c1c(C(=O)OCC)c(C)n(/N=N/n2c(C)c(C(=O)OCC)c(C(=O)OCC)c2C)c1C`, the T/C [11] was 103 % of control and the T/C [12] was 87 % of control.

With `[O-][n+]1cccc(O)c1` the T/C [4] was 100 % of control and 102 % of control, the T/C [5] was 102 % of control and 108 % of control and the T/C [6] was 102 % of control and 92 % of control. The T/C [7] was 100 % of control and 108 % of control, the T/C (dose: 400.0 mg/kg/injection, schedule: Q01DX009 (ip), vehicle: saline) was 103 % of control and 97 % of control and the T/C (dose: 600.0 mg/kg/injection, schedule: Q01DX009 (ip), vehicle: saline) was 108 % of control and 117 % of control.

For `CCOc1ccc2c(N/N=C/c3ccc(N(CCCl)CCCl)cc3)cc(C)nc2c1`, the T/C [8] was 96 % of control, the T/C [9] was 94 % of control and the T/C [10] was 99 % of control and 88 % of control.

With `Cc1ccc(S(=O)(=O)N(C)c2cc(Cl)c(C(=O)O)c(Cl)c2)cc1` the T/C (dose: 88.0 mg/kg/injection, schedule: Q04DX003 (ip), vehicle: saline with Tween-80) was 99 % of control, the T/C (dose: 133.0 mg/kg/injection, schedule: Q04DX003 (ip), vehicle: saline with Tween-80) was 100 % of control and the T/C (dose: 200.0 mg/kg/injection, schedule: Q04DX003 (ip), vehicle: saline with Tween-80) was 99 % of control. For the same compound, the T/C (dose: 300.0 mg/kg/injection, schedule: Q04DX003 (ip), vehicle: saline with Tween-80) was 100 % of control.

In the case of `CCCC1N[C@H](C(=O)O)CS1` (stereo partly drawn), the T/C (dose: 50.0 mg/kg/injection, schedule: Q01DX001 (ip), vehicle: Klucel (hydroxypropylcellulose) (HPC)) is reported as 100 % of control, the T/C (dose: 100.0 mg/kg/injection, schedule: Q01DX001 (ip), vehicle: Klucel (hydroxypropylcellulose) (HPC)) is reported as 97 % of control and the T/C (dose: 200.0 mg/kg/injection, schedule: Q01DX001 (ip), vehicle: Klucel (hydroxypropylcellulose) (HPC)) is reported as 102 % of control. For the same compound, the T/C (dose: 400.0 mg/kg/injection, schedule: Q01DX001 (ip), vehicle: Klucel (hydroxypropylcellulose) (HPC)) was 100 % of control.

With `COc1ccc2c(c1OC)C(=O)OC2C(=O)NCCc1ccc2c(c1)OCO2` (stereo not drawn) the T/C [11] was 92 % of control, the T/C [12] was 92 % of control and the T/C [13] was 93 % of control.

With `COc1ccc(C2(c3ccccc3)c3ccccc3C(=O)c3ccccc32)cc1` the T/C [11] was 101 % of control, the T/C [12] was 103 % of control and the T/C [13] was 99 % of control.

For `CCOC(=O)C1Cc2c([nH]c(=O)[nH]c2=O)OC1c1ccc(OC)cc1` (stereo not drawn), the T/C [11] was 97 % of control, the T/C [12] was 100 % of control and the T/C [13] was 97 % of control.
